Experimental data: PubChem BioAssay AID2060901 (Molecular Pharmacology Branch, DTP, NCI, 2025)

Test system: 422866-222-R5-J1-PDC complex spheroids viability
Assay: Anticancer human tumor 422866-222-R5-J1-PDC patient-derived pancreatic adenocarcinoma cell line growth inhibition [RAS]
Settings: for IC50: curve of first compound; for viability, T/C: stronger effect = lower value
Method in brief: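 Agents were tested in combination matrices in half-log decrements from a top concentration at or near clinical Cmax (10 microM if undetermined). Targets were multi-cell spheroids of tumour lines plus HUVEC and MSC stromal cells.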

[1] = second compound 0.000949 µM, first compound 0.0316 µM
[2] = second compound 0.000949 µM, first compound 0.1 µM
[3] = second compound 0.000949 µM, first compound 0.316 µM
[4] = second compound 0.000949 µM, first compound 1 µM
[5] = second compound 0.000949 µM, first compound 3.16 µM
[6] = second compound 0.000949 µM, first compound 10 µM
[7] = second compound 0.003 µM, first compound 0.0316 µM
[8] = second compound 0.003 µM, first compound 0.1 µM
[9] = second compound 0.003 µM, first compound 0.316 µM
[10] = second compound 0.003 µM, first compound 1 µM
[11] = second compound 0.003 µM, first compound 3.16 µM
[12] = second compound 0.003 µM, first compound 10 µM
[13] = second compound 0.00949 µM, first compound 0.0316 µM
[14] = second compound 0.00949 µM, first compound 0.1 µM
[15] = second compound 0.00949 µM, first compound 0.316 µM
[16] = second compound 0.00949 µM, first compound 1 µM
[17] = second compound 0.00949 µM, first compound 3.16 µM
[18] = second compound 0.00949 µM, first compound 10 µM
[19] = second compound 0.03 µM, first compound 0.0316 µM
[20] = second compound 0.03 µM, first compound 0.1 µM
[21] = second compound 0.03 µM, first compound 0.316 µM
[22] = second compound 0.03 µM, first compound 1 µM
[23] = second compound 0.03 µM, first compound 3.16 µM
[24] = second compound 0.03 µM, first compound 10 µM
[25] = second compound 0.0949 µM, first compound 0.0316 µM
[26] = second compound 0.0949 µM, first compound 0.1 µM
[27] = second compound 0.0949 µM, first compound 0.316 µM
[28] = second compound 0.0949 µM, first compound 1 µM
[29] = second compound 0.0949 µM, first compound 3.16 µM
[30] = second compound 0.0949 µM, first compound 10 µM
[31] = second compound 0.3 µM, first compound 0.0316 µM
[32] = second compound 0.3 µM, first compound 0.1 µM
[33] = second compound 0.3 µM, first compound 0.316 µM
[34] = second compound 0.3 µM, first compound 1 µM
[35] = second compound 0.3 µM, first compound 3.16 µM
[36] = second compound 0.3 µM, first compound 10 µM
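Further: spheroids exposed to compounds for 7 days.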
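Wherever viability, T/C is given: 100% = DMSO vehicle control viability.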

With `Cc1nc(N2CCC3(CC2)COC(C)C3N)c(CO)nc1Sc1ccnc(N)c1Cl` (centres undefined) + CCn1c(-c2cccnc2C(C)OC)c2c3cc(ccc31)N1CCOC(CC(NC(=O)C(C(C)C)N(C)C(=O)C3(F)CCN(C(=O)C#CC(C)(C)N(C)C)CC3)C(=O)N3CCCC(N3)C(=O)OCC(C)(C)C2)C1 the IC50 (second compound 0.000949 µM) was < 31.6 nM, the IC50 (second compound 0.003 µM) was < 31.6 nM and the IC50 (second compound 0.00949 µM) was < 31.6 nM. For the same molecule, the IC50 (second compound 0.03 µM) was < 31.6 nM, the IC50 (second compound 0.0949 µM) was < 31.6 nM and the IC50 (second compound 0.3 µM) was < 31.6 nM. The viability, T/C [1] was 23.6%, the viability, T/C [2] was 22.8% and the viability, T/C [3] was 17.9%. For the same molecule, the viability, T/C [4] was 17.6%, the viability, T/C [5] was 16.4% and the viability, T/C [6] was 17.5%. The viability, T/C [7] was 20.9%, the viability, T/C [8] was 18.5% and the viability, T/C [9] was 17.1%. The viability, T/C [10] was 17.9%, the viability, T/C [11] was 15.9% and the viability, T/C [12] was 23.2%. The viability, T/C [13] was 20%, the viability, T/C [14] was 16.3% and the viability, T/C [15] was 15.8%. The viability, T/C [16] was 14.1%, the viability, T/C [17] was 16.4% and the viability, T/C [18] was 13.6%. The viability, T/C [19] was 20.8%, the viability, T/C [20] was 15.6% and the viability, T/C [21] was 12.8%. For the same molecule, the viability, T/C [22] was 14.9%, the viability, T/C [23] was 13.5% and the viability, T/C [24] was 13.8%. The viability, T/C [25] was 15.6%, the viability, T/C [26] was 13.4% and the viability, T/C [27] was 13.9%. The viability, T/C [28] was 11.9%, the viability, T/C [29] was 15.6% and the viability, T/C [30] was 14.2%. It also gave a viability, T/C [31] of 17.5%, a viability, T/C [32] of 13.9% and a viability, T/C [33] of 14.9%. For the same molecule, the viability, T/C [34] was 12.5%, the viability, T/C [35] was 17.3% and the viability, T/C [36] was 18.8%.

`C[C@@H](NC(=O)c1ncnc(N)c1Cl)c1ncc(C(=O)Nc2cc(C(F)(F)F)c(Cl)cn2)s1` + CCn1c(-c2cccnc2C(C)OC)c2c3cc(ccc31)N1CCOC(CC(NC(=O)C(C(C)C)N(C)C(=O)C3(F)CCN(C(=O)C#CC(C)(C)N(C)C)CC3)C(=O)N3CCCC(N3)C(=O)OCC(C)(C)C2)C1 was tested, and the IC50 (second compound 0.000949 µM) was < 31.6 nM, the IC50 (second compound 0.003 µM) was < 31.6 nM and the IC50 (second compound 0.00949 µM) was < 31.6 nM. For the same molecule, the IC50 (second compound 0.03 µM) was < 31.6 nM, the IC50 (second compound 0.0949 µM) was < 31.6 nM and the IC50 (second compound 0.3 µM) was < 31.6 nM. It also gave a viability, T/C [1] of 32%, a viability, T/C [2] of 30.9% and a viability, T/C [3] of 30.3%. It also gave a viability, T/C [4] of 32.5%, a viability, T/C [5] of 29% and a viability, T/C [6] of 37%. The viability, T/C [7] was 25.3%, the viability, T/C [8] was 24% and the viability, T/C [9] was 28.5%. It also gave a viability, T/C [10] of 25.6%, a viability, T/C [11] of 25.5% and a viability, T/C [12] of 26.3%. For the same molecule, the viability, T/C [13] was 26.9%, the viability, T/C [14] was 23.2% and the viability, T/C [15] was 23.7%. The viability, T/C [16] was 22.2%, the viability, T/C [17] was 24.6% and the viability, T/C [18] was 23.6%. It also gave a viability, T/C [19] of 24.7%, a viability, T/C [20] of 19.7% and a viability, T/C [21] of 22.7%. The viability, T/C [22] was 21.7%, the viability, T/C [23] was 25.2% and the viability, T/C [24] was 21%. The viability, T/C [25] was 17.8%, the viability, T/C [26] was 18.4% and the viability, T/C [27] was 21.8%. The viability, T/C [28] was 20.2%, the viability, T/C [29] was 20.7% and the viability, T/C [30] was 21.7%. It also gave a viability, T/C [31] of 18%, a viability, T/C [32] of 17.8% and a viability, T/C [33] of 21.5%. It also gave a viability, T/C [34] of 20%, a viability, T/C [35] of 21.7% and a viability, T/C [36] of 26.1%.
